Experimental data published in US9545385B2, “Inhibitors of hemeprotein-catalyzed lipid peroxidation” (VANDERBILT UNIVERSITY, priority 2013, dated 2017).

Columns and labels:
[1] = Antioxidant rate constant kinh in chemical tests, relative to α-TOH
From the text: Antioxidants, most commonly substituted phenols, effectively intercept peroxyls by transferring the phenolic H-atom to a propagating peroxyl radical, with a rate constant kinh that is faster than that of chain propagation. The most famous example of a phenolic antioxidant is vitamin E (α-toco-pherol, α-TOH) nature's hydrophobic defense against radical chain oxidation.
Compounds of the present invention have a higher kinh and serve as better antioxidants than α-TOH in chemical tests. The critical antioxidant step is shown in Equation 1, the larger the kinh, the better the antioxidant. The simple pyridinol 2a shown below is nearly 5 times better than α-TOH as an antioxidant and the bicyclic compounds 3a and 4a are over 20 times better than the vitamin. […]

[2] = Direct cellular toxicity (total cellular ATP levels); assay type: cell-based; settings: human, HepG2 cells, read-out: Cellular Toxicity (EC50, μM ± SD)
From the text: Values represent means±S.E.M.

Microsomal stability = settings: % of unmodified compound remaining after reaction; human liver microsomes
COX-1 = COX-1 (Homo sapiens, UniProt P23219); experiment: Inhibition of COX-1-catalyzed oxidation of arachidonic acid (Example 6); assay type: biochemical
Sequence of COX-1 (P23219 24-599, species assumed): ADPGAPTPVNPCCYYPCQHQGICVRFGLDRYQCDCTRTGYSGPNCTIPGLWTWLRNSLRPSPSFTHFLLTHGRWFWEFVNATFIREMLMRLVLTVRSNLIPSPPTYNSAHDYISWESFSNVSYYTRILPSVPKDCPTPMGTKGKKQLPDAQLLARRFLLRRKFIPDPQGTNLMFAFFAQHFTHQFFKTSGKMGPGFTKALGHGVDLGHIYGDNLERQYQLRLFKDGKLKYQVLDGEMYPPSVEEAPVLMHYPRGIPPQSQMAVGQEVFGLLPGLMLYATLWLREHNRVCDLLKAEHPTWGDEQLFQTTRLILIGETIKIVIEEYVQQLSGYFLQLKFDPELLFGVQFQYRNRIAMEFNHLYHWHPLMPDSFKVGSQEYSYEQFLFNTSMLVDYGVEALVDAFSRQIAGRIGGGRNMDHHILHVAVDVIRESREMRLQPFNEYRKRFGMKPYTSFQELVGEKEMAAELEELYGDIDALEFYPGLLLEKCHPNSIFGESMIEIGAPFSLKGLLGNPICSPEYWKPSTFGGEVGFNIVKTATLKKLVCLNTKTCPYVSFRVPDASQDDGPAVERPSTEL
Experimental: (§1) The inhibition of the lipid peroxidation produced by myoglobin (Mb) and COX-1 by the different analogs was tested. Values represent the IC50 for each hemeprotein and are expressed as means±S.E.M. a: value reported from (1.). b: value reported from (3).

myoglobin (Mb) = molecular target: T1, myoglobin (Mb) (Homo sapiens, UniProt P02144); experiment: Inhibition of myoglobin-induced oxidation of arachidonic acid; assay type: biochemical; settings: among ApAP and analogs 12-14
T1 sequence (P02144 1-154): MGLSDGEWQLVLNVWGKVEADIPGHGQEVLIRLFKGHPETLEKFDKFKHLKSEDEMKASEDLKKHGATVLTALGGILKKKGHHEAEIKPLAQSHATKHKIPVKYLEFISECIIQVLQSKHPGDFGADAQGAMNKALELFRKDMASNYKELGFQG
Experimental: as §1

[3] = system: rat model of rhabdomyolysis; experiment: Rat model of rhabdomyolysis (myoglobin-catalyzed lipid peroxidation, renal failure); assay type: in vivo; settings: dose giving plasma levels in the human therapeutic range
ferryl myoglobin = molecular target: T2, ferryl myoglobin (Homo sapiens, UniProt P02144); experiment: Reduction of ferryl myoglobin to ferric myoglobin; assay type: biochemical; settings: compared with acetaminophen
T2 sequence (P02144 1-154): T1 sequence (P02144 1-154)
Experimental: Ferryl myoglobin was generated by incubating ferric myoglobin 10 μM in PBS with 10 μM hydrogen peroxide until there was no more change in the peak at 421 nm. At this time, the analogs were added to the cuvette at the final concentrations indicated and spectra were recorded every 15 sec for 2 min. The initial rate of reduction was calculated as the variation of absorbance at 409 nm in the first two minutes after adding the analogs. In this period of time the rates of reduction were linear for each concentration of analog.

HepG2 liver cell line = system: HepG2 liver cell line
Experimental: HepG2 were plated in multiple 96-well plates at 2×10^4 cells per well and pretreated with ethanol 100 μM for 2 hours. […] Cell viability after 24 h was determined by measuring ATP levels by luminescence assay.

PGHS-2 (COX-2) = molecular target: T3, PGHS-2 (COX-2) (Homo sapiens, UniProt P35354); experiment: Inhibition of hematin-reconstituted COX-2, [14C] arachidonic acid oxidation; assay type: biochemical; settings: compared with PGHS-1
T3 sequence (P35354 18-604): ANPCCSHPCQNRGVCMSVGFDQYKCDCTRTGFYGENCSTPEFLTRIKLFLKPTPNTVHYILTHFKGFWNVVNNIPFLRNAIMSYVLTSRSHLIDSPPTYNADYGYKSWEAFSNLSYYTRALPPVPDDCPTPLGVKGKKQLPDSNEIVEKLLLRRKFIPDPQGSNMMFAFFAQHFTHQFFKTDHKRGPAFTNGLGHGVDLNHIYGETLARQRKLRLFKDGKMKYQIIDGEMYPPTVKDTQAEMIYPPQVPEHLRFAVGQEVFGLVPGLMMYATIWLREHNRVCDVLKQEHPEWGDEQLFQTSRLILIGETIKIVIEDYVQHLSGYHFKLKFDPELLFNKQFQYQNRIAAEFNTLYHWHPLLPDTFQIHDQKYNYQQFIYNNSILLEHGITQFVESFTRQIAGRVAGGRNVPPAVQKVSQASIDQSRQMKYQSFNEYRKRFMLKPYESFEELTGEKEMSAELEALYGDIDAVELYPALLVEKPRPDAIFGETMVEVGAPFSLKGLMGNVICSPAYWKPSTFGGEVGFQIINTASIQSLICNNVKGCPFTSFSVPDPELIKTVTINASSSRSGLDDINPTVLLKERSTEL
Experimental: Hematin-reconstituted COX-1 (5.4 nM) or COX-2 (10.8 nM) in Tris HCl 100 mM, pH 8.0, 500 μM phenol, was pre-incubated with N-dimethyl pyrimidinol (DM, plain line) or N-dimethyl pyridinol (DR, dashed line) at varying concentrations at 37° C. for 20 minutes. At this time the reaction was initiated by addition of 0.5 μM of [14C] arachidonic acid. After 8 seconds, the reaction was stopped by adding an ice cold mixture of diethyl ether/methanol/4.0 M citric acid. PGHS-1 activity was expressed as percent oxidation of arachidonic acid compared with control where no inhibitor was added. Each data point represents the mean±S.E.M of six values.

For `Cc1cc(N(C)C)nc(C)c1O` [Analog 2a], which “antioxidant potency, times better than α-TOH” value [1] is on record?
Its value is about 5 times.

For `O=C1NCc2cc(O)cnc2N1` [Analog 12], which EC50 at 24 h [2] is on record?
Its EC50 at 24 h is 4760 ± 36 µM.

And the “Microsomal stability % left” value (Microsomal stability)?
The value was 158 ± 33%.

With `Cc1nc2c(c(C)c1O)CNC(=O)N2` [Analog 13] as the molecule, how does the EC50 at 24 h [2] read?
The EC50 at 24 h was 2960 ± 284 µM.

What about the “inhibition of COX-1, in words” value (COX-1; at concentrations up to 1 mM) of the same molecule?
Its value is “not able to significantly inhibit”.

What about the “Microsomal stability % left” value (Microsomal stability) of the same molecule?
The value was 87 ± 7%.

With `Cc1nc2c(c(C)c1O)COC(=O)N2` [Analog 14] as the molecule, how does the EC50 at 24 h [2] read?
The EC50 at 24 h was over 5000 µM.

And the “rank in inhibiting myoglobin-induced arachidonic oxidation” value (myoglobin (Mb))?
The value was “least potent”.

And the “rank in inhibiting COX-1 activity” value (COX-1; among ApAP and analogs 12-14)?
Its value is “most potent”.

What about the “Microsomal stability % left” value (Microsomal stability) of the same molecule?
The value was 97 ± 3%.

With `CC(=O)Nc1ccc(O)cc1` [ApAP, acetaminophen] as the molecule, how does the “lipid peroxidation in rhabdomyolysis model” value ([3]; listed as Acetaminophen) read?
The value was “blocked lipid peroxidation”.

And the “renal failure in rhabdomyolysis model” value ([3]; listed as Acetaminophen)?
The value was “prevented the renal failure”.

And the “lipid peroxidation in rhabdomyolysis model” value ([3]; listed as acetaminophen)?
The value was “blocks”.

And the “renal failure in rhabdomyolysis model” value ([3]; listed as acetaminophen)?
The value was “blocks”.

What about the EC50 at 24 h [2] of the same molecule?
The EC50 at 24 h was 594 ± 147 µM.

With `CN(C)c1ncc(O)cn1` [DM-Pym, 2-(dimethylamino)pyrimidin-5-ol] as the molecule, how does the “potency in reducing ferryl myoglobin” value (ferryl myoglobin) read?
The value was “remarkably more potent than acetaminophen”.

What about the “cytotoxicity in ethanol-induced HepG2 model” value (HepG2 liver cell line) of the same molecule?
Its value is “does not cause cytotoxicity”.

Which “inhibition of PGHS-2 (COX-2), in words” value (PGHS-2 (COX-2)) does the source give for `CN(C)c1ccc(O)cn1` [DM-Pyr, 6-(dimethylamino) pyridin-3-ol] here?
Its value is “only a weak inhibitor”.
